Assay results as given in patent US7683065B2, “Pyridines useful as modulators of ion channels” (Vertex Pharmaceuticals Incorporated, priority 2005, dated 2010).
Read-outs that look alike come from different tables or passages of the source.

What was measured:
NaV1.8 [1] = biological target: T1, NaV1.8 (Homo sapiens, UniProt Q9Y5Y9); assay: Activity against NaV 1.8 channel (NaV inhibition assays, Table 4); type: cell-based
Procedure: Compounds of the invention are useful as antagonists of voltage-gated sodium ion channels. Antagonist properties of test compounds were assessed as follows. Cells expressing the NaV of interest were placed into microtiter plates. After an incubation period, the cells were stained with fluorescent dyes sensitive to the transmembrane potential. The test compounds were added to the microtiter plate. The cells were stimulated with either a chemical or electrical means to evoke a NaV dependent membrane potential change from unblocked channels, which was detected and measured with trans-membrane potential-sensitive dyes. Antagonists were detected as a decreased membrane potential response to the stimulus. The optical membrane potential assay utilized voltage-sensitive FRET sensors described by Gonzalez and Tsien (See Gonzalez, J. E. and R. Y. Tsien (1995) “Voltage sensing by fluorescence resonance energy transfer in single cells” Biophys J 69(4): 1272-80, and Gonzalez, J. E. and R. Y. Tsien (1997) “Improved indicators of cell membrane potential that use fluorescence resonance energy transfer” Chem Biol 4(4): 269-77) in combination with instrumentation for measuring fluorescence changes such as the Voltage/Ion Probe Reader (VIPR®) (See, Gonzalez, J. E., K. Oades, et al. (1999) “Cell-based assays and instrumentation for screening ion-channel targets” Drug Discov Today 4(9): 431439).
24 hours before the assay on VIPR, CHO cells endogenously expressing a NaV1.2 type voltage-gated NaV are seeded in 96-well poly-lysine coated plates at 60,000 cells per well. Other subtypes are performed in an analogous mode in a cell line expressing the NaV of interest. • 1) On the day of the assay, medium is aspirated and cells are washed twice with 225 μL of Bath Solution #2 (BS#2). • 2) A 15 uM CC2-DMPE solution is prepared by mixing 5 mM coumarin stock solution with 10% Pluronic 127 1:1 and then dissolving the mix in the appropriate volume of BS#2. • 3) After bath solution is removed from the 96-well plates, the cells are loaded with 80 μL of the CC2-DMPE solution. Plates are incubated in the dark for 30 minutes at room temperature. • 4) While the cells are being stained with coumarin, a […] oxonol solution in BS#2 is prepared. In addition to DiSBAC2(3), this solution should contain 0.75 mM ABSC1 and […] veratridine (prepared from 10 mM EtOH stock, Sigma #V-5754). • 5) After 30 minutes, CC2-DMPE is removed and the cells are washed twice with 225 μL of BS#2. […] The cells are then incubated for 20-30 minutes. • 7) Once the incubation is complete, the cells are ready to be assayed on VIPR® with a sodium addback protocol. […]
The following is an example of how NaV1.3 inhibition activity is measured using the optical membrane potential method#2. […]

neuropathic pain = settings: in vivo; cited from earlier work
NaV1.3 = NaV1.3 (Homo sapiens, UniProt Q9NY46); settings: read-out: TTX IC50; cited from earlier work
Chain of NaV1.3 (Q9NY46 whole entry, looked up): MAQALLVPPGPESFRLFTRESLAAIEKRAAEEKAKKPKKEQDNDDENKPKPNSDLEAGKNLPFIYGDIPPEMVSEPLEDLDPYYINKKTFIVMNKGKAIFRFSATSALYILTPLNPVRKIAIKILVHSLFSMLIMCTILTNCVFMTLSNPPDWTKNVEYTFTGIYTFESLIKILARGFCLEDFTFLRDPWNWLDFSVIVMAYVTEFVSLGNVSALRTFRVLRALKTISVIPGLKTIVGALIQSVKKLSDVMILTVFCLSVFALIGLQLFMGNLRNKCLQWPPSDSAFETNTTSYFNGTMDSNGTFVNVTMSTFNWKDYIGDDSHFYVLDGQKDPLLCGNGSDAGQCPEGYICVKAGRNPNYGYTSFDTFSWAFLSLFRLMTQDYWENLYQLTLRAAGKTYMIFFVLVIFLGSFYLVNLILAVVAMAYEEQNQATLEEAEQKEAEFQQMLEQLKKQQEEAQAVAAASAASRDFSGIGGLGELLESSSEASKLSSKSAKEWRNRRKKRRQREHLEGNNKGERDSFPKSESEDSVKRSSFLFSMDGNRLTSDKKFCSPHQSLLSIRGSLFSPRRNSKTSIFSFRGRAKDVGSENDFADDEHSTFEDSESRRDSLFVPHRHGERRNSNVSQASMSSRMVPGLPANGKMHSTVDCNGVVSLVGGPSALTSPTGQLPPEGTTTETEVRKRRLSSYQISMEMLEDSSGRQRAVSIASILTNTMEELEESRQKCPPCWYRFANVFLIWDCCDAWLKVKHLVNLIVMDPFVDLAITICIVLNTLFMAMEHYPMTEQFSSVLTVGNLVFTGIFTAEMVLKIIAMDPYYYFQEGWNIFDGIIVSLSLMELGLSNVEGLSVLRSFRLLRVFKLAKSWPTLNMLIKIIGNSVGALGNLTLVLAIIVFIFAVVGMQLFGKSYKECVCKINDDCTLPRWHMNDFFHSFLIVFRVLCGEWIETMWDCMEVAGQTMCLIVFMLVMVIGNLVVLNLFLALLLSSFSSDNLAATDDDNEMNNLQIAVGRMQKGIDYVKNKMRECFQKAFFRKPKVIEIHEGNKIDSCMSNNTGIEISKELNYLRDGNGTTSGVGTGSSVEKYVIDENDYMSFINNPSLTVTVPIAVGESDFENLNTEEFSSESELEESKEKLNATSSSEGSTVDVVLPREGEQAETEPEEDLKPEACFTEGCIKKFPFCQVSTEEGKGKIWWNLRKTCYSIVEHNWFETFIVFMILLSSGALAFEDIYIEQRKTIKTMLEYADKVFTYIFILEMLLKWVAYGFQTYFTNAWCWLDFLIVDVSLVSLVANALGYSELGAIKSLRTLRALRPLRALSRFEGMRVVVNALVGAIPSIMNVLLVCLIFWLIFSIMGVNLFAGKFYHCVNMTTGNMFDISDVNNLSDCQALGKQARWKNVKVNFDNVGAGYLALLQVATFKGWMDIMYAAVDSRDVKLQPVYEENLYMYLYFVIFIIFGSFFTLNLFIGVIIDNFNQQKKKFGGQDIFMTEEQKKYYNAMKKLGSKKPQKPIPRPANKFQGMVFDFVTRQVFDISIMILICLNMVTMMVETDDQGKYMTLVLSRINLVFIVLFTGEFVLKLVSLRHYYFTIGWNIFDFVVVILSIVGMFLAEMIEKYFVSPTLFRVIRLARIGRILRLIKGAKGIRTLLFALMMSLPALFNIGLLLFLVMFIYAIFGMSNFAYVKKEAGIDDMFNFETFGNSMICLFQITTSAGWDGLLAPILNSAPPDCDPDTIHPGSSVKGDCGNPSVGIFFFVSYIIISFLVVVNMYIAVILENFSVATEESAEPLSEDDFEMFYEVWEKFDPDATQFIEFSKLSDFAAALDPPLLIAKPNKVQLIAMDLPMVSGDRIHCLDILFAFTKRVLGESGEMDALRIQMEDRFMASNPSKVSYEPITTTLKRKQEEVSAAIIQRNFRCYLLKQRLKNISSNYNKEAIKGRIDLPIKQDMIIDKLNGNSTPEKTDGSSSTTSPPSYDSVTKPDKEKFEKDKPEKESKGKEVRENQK

NaV1.8 [2] = biological target: T1, NaV1.8; settings: read-out: TTX IC50; cited from earlier work

T1 sequence (Q9Y5Y9 whole entry, looked up): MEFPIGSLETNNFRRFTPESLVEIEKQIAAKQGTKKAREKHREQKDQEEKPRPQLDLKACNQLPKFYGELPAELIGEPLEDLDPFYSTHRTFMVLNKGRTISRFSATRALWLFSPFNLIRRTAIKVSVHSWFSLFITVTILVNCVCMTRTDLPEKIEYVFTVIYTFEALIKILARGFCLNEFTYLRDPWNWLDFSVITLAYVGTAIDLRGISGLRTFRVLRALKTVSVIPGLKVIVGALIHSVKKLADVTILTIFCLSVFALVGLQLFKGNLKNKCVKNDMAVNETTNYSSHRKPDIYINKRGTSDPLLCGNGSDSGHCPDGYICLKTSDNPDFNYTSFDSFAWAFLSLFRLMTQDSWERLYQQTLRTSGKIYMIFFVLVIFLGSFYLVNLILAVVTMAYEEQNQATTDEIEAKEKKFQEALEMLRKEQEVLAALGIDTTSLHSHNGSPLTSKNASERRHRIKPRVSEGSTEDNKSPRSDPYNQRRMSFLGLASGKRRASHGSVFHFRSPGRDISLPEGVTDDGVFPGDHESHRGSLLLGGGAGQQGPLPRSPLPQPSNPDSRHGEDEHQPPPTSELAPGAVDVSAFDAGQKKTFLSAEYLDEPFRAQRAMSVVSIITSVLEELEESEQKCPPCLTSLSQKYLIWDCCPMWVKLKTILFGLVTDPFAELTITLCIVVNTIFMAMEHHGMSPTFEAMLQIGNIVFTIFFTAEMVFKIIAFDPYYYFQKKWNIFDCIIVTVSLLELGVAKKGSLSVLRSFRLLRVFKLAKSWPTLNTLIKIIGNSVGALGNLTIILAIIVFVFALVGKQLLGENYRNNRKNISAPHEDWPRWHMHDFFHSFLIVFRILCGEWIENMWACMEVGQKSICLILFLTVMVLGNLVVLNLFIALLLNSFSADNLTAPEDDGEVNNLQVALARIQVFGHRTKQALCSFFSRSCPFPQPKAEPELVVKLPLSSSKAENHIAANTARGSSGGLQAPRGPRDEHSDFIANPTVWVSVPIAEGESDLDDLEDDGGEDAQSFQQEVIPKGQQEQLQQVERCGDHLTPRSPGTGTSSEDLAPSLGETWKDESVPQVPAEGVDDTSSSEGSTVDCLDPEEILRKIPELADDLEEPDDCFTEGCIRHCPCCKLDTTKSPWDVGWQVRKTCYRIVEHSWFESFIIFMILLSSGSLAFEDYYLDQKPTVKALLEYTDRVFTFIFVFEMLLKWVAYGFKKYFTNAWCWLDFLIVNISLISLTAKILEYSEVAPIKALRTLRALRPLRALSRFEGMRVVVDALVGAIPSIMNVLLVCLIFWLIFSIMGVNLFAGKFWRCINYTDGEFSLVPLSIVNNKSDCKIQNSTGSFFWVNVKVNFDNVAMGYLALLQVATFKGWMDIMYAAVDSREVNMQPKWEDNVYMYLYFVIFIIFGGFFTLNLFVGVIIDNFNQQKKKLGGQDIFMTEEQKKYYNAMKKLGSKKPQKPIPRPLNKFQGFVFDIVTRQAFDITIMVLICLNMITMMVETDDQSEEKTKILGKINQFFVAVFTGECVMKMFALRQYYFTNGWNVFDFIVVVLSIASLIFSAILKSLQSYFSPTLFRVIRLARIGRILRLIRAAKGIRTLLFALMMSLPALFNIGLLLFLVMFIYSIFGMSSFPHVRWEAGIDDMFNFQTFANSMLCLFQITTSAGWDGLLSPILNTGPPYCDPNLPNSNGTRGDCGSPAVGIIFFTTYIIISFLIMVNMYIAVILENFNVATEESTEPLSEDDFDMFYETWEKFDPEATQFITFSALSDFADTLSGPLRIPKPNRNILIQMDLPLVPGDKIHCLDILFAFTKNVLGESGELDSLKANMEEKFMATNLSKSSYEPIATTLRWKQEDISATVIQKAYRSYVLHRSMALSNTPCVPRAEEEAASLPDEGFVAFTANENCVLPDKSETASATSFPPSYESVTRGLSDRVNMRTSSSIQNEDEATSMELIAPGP

SMILES	IC50 (NaV1.8 [1]) [µM]	other results
CC(C)COC(=O)N1CCN(c2cccc(-c3ccccc3O)n2)CC1 [Compound 3, 4-[6-(2-hydroxyphenyl)-2-pyridyl]piperazine-1-carboxylic acid isobutyl ester]	10 to 15	–
NCC1(CC(=O)O)CCCCC1 [Gabapentin]	–	share of patients in whom it works (neuropathic pain): 60%
CC(C)COC(=O)N1CCN(c2ccnc(-c3ccccc3O)c2)CC1 [Compound 1, Isobutyl 4-(2-(2-hydroxyphenyl)pyridin-4-yl)piperazine-1-carboxylate]	> 15	–
CC(C)COC(=O)N1CCN(c2cc(-c3ccccc3O)ccn2)CC1 [Compound 5, Isobutyl-4-[4′-(2-hydroxyphenyl)-pyridin-2′-yl]-piperazine-1-carboxylate]	> 15	–
CC(C)C[C@@H](O)C(=O)N1CCN(c2cccc(-c3ccccc3O)n2)CC1 [Compound 4, (R)-2-hydroxy-1-(4-(6-(2-hydroxyphenyl)pyridin-2-yl)piperazin-1-yl)-4-methylpentan-1-one]	< 10	–
NC1=N[C@H](O)[C@H]2[C@H]3O[C@]4(O)O[C@@H]([C@@H](O)[C@@]2(N1)[C@@H]4O)[C@]3(O)CO [TTX, tetrodotoxin]	–	IC50 (NaV1.3): 0.015 µM; IC50 (NaV1.8 [2]): > 50 µM
